{"source": "patent US4659712A", "about": "“Fodder additive and a process for the preparation” (Richter Gedeon Vegyeszeti Gyar Rt., priority 1984, dated 1987)", "key": {"[1]": {"test": "Quinoxaline-2-carboxylic acid (Carbadox metabolite) residue in pig muscle (ham, chop), liver and kidney after flumecinol treatment", "assay_type": "in vivo, pigs", "description": "Tests were carried out at a large-scale pig farm, where 25 mg/kg of body weight of Carbadox admixed with the fodder of the pigs were administered to pigs having a live weight of 40 kg. From a population fed with this fodder 27 animals, each weighing exactly 40 kg, were selected, by weighing them separately. The selected animals were railed off in a place suitable for further tests. From this time on (zero time) the animals were given the same fodder as before, except Carbadox.\nThe 27 animals were divided into three groups as follows:\nGroup I: 12 animals (ser. Nos. from 1 to 12) slaughtering: three animals each when starting the experiment (0 time) and on the 1st, 5th and 15th days (positive control group) Group II: 9 amimals (ser. Nos. from 13 to 21) treatment: a single 40 mg/kg of body weight dose of flumecinol at zero time. slaughtering: three animals each on the 1st, 5th and 15th days (group treated with a single dose of flumecinol) Group III: 6 animals (ser. Nos. 22 to 27) treatment: 40 mg/kg of body weight of flumecinol for three days, at zero time and on the 1st and 2nd day slaughtering: three animals each on the 5th and 15th days (group treated with flumecinol three times) Flumecinol is available as a micropellet containing 19.02% of active ingredient. From this and a 1% starch hydrolysate a suspension is prepared, containing 40 mg of flumecinol per 1 ml (dose used for one kg of body weight). The active compound was administered 8 o'clock in the morning, without previous fasting, through a stomach tube, in order to ensure exact conditions for the experiments. The animals were killed and samples were taken from 8 to 11 o'clock in the morning, whereupon the samples were transported into the analytical laboratory within one hour, under cooling.\nQuinoxaline-2-carboxylic acid (a metabolite of Carbadox) was determined in the chop, liver and kidney tissues of three animals from each group. Each muscle and liver sample was subjected to organoleptic examination also (boiling test).\nThe quantity of quinoxaline-2-carboxylic acid was determined essentially following the method described in the USDA Chemistry Laboratory Guidebook (5007 Determination of Carbadox):\nFollowing the alkaline hydrolysis of the muscle, liver and kidney samples, the hydrolysates were strongly acidified and the quinoxaline-2-carboxylic acid was extracted with ethyl acetate. The pH of the ethyl acetate extract was adjusted to 6 with a citric acid buffer, whereupon the mixture was extracted with benzene. In the next step the acid was esterified with a mixture of n-propanol and sulfuric acid, to yield propyl quinoxaline-2-carboxylate. The quantity of the latter compound was determined (after purification by thin layer chromatography) by gas chromatography. This cumbersome test procedure was always performed together with a […] control sample to which a known amount (0.2 μg-1.0 μg) of quinoxaline-2-carboxylic acid (standard) was added. The percentage of the active ingredient recovered from this sample was taken into account when calculating the residual active substance amount. In this way the error of the process was eliminated.\nThe test results, if not otherwise indicated, are given in μg/kg.\nThe quantity of quinoxaline-2-carboxylic acid in the above-specified slaughtering times is shownn in Table 1. The tests were carried out on three animals and Table 1 contains the results obtained on the individual animals. The results were also statistically evaluated for the various sorts of tissues, although in this specific case this was not really necessary, since according to the valid prescriptions the products of animal origin should not contain Carbadox at all, i.e. the limit is zero. Therefore, we considered it more important to determine when the animal tissues become entirely Carbadox-free, than to observe the differences among the tissues of the various groups of animals in the time when they were killed."}, "[2]": {"tested_on": "E.coli infections and dysentery", "settings": "pigs; cited from earlier work"}, "[3]": {"settings": "administered as a fodder additive; cited from earlier work"}, "[4]": {"settings": "in vivo; cited from earlier work"}}}
{"smiles": "COC(=O)NN=Cc1c[n+]([O-])c2ccccc2[n+]1[O-]", "note": "[Carbadox, 3-(2-quinoxalinylmethylene)-carbazic acid methyl ester N,N'-dioxide, reference compound]", "values": [{"measurement": "amount of residue in liver, change from initial", "setting": "[1]; control group, 1st day", "value": "further increased on the 1st day"}, {"measurement": "level of residue in liver", "setting": "[1]; control group, 15th day", "value": "a level identical with the initial concentration in the muscles"}, {"measurement": "amount of the Carbadox metabolite residue in the liver vs. muscle", "setting": "[1]; liver", "value": "one order of magnitude higher than in the muscle tissue"}, {"measurement": "potency in the treatment and prophylaxis of E.coli infections and dysentery", "setting": "[2]", "value": "very potent"}, {"measurement": "increasing the weight gain of animals", "setting": "[3]", "value": "one of the most efficious agents employed for increasing the weight gain of animals"}, {"measurement": "elimination rate from the animals", "setting": "[4]", "value": "eliminated from the animals at a very low rate"}]}
{"smiles": "O=C(O)c1cnc2ccccc2n1", "note": "[quinoxaline-2-carboxylic acid, Quinoxaline-2-carboxylic acid]", "values": [{"measurement": "quinoxaline-2-carboxylic acid in muscle, kidney and liver tissues", "setting": "[1]; Carbadox, no flumecinol, 15th day following termination", "value": "significant amount"}, {"measurement": "quinoxaline-2-carboxylic acid in the kidney", "setting": "[1]; control group, 15th day", "value": "detected in the kidney even on the 15th day"}, {"measurement": "presence in muscle tissue", "setting": "[1]; positive control, 15 days after termination of Carbadox administration", "value": "present in the muscle tissue even 15 days after the termination of Carbadox administration, in a significant amount"}, {"measurement": "residual concentration, chop vs. ham", "setting": "[1]; positive control, muscle tissue", "value": "always higher in the chop than in the ham muscle"}]}
